Laboratory results published in US20120164242A1, “NOVEL METHODS FOR MODULATING MELANIN PRODUCTION” (priority 2010, published 2012).

System: melanogenesis related genes
Experiment: RT-PCR mRNA level of melanogenesis related genes in B16-F10 cells
Format: cell-based, mouse
Details: 100 μM, three days
Method: To determine whether THSG had similar effects as the PMT extract on the induction of melanin related gene expression, B16-F10 cells were cultured in medium containing PMT extract (10 μg/mL), THSG (10 μg/mL), naringenin (100 μM) for three days and RT-PCR was performed to analyze melanin biosynthesis related gene expression using the protocol as described in Example 4 above.

## O=C1C[C@@H](c2ccc(O)cc2)Oc2cc(O)cc(O)c21 [naringenin]
  mRNA level of melanogenesis related genes: no increase
